From patent publication US11873295B2, “Allosteric chromenone inhibitors of phosphoinositide 3-kinase (PI3K) for the treatment of disease” (Petra Pharma Corporation, priority 2021, dated 2024) come the findings set out here.

Assay [1] addresses T1, human full length PIK3KA Wild-type (p110α/p85α complex) (Homo sapiens, UniProt P42336).
T1 construct: Recombinant, catalytically active human full length PIK3KA Wild-type and H1047R mutant were purchased as 1:1 complex; 6xHis (N); purchased EMD Millipore Sigma 14-602M
Description: PI3K-alpha kinase (PIK3CA) biochemical activity, wild-type, ADP-Glo. Particulars: PI3K-α (PIK3CA) biochemical, Soy PI lipid substrate. In short, it runs like this:
(§1)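 Full-length His-p110α/p85α complex, wild-type or H1047R, 1–5 nM, preincubated with compound 1 h at 27 °C in HEPES pH 7.4, 25 mM MgCl2, 0.01% Triton X-100, 1% DMSO. Reaction with 20 μM ATP and 50 μM PIP2diC8 or soy PI at 27 °C to ~10% ATP conversion; ADP-Glo luminescence. IC50 from 10-point four-parameter logistic fit.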
(In general: ADP-Glo first removes unused ATP, then detects ADP through luciferase.)

The test system of assay [2] is PI3K-α (PIK3CA) in MDA-MB-453 cells. Description: PI3K-alpha kinase (PIK3CA) activity in vitro cell based assay, MDA-MB-453 cells, AlphaLisa SureFire. The note with it: 0% FBS, 3 hours treatment, relative IC50. In short, it runs like this: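 MDA-MB-453 cells in serum-free MEM with 1 μg/mL insulin treated 3 h with 10-point 1:3 compound dilutions, 0.3% DMSO. Lysates read by AlphaLisa SureFire; percent inhibition relative to DMSO (max) and 1 μM GDC-0032 (min), duplicate means fitted to 4-parameter logistic for relative IC50.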

In assay [3] the target is T2, human full length PIK3KA H1047R mutant (p110α/p85α complex) (Homo sapiens, UniProt P42336, H1047R).
T2 construct: Recombinant, catalytically active human full length PIK3KA Wild-type and H1047R mutant were purchased as 1:1 complex; 6xHis (N); purchased EMD Millipore Sigma 14-792M
T2 sequence (P42336 whole entry H1047R): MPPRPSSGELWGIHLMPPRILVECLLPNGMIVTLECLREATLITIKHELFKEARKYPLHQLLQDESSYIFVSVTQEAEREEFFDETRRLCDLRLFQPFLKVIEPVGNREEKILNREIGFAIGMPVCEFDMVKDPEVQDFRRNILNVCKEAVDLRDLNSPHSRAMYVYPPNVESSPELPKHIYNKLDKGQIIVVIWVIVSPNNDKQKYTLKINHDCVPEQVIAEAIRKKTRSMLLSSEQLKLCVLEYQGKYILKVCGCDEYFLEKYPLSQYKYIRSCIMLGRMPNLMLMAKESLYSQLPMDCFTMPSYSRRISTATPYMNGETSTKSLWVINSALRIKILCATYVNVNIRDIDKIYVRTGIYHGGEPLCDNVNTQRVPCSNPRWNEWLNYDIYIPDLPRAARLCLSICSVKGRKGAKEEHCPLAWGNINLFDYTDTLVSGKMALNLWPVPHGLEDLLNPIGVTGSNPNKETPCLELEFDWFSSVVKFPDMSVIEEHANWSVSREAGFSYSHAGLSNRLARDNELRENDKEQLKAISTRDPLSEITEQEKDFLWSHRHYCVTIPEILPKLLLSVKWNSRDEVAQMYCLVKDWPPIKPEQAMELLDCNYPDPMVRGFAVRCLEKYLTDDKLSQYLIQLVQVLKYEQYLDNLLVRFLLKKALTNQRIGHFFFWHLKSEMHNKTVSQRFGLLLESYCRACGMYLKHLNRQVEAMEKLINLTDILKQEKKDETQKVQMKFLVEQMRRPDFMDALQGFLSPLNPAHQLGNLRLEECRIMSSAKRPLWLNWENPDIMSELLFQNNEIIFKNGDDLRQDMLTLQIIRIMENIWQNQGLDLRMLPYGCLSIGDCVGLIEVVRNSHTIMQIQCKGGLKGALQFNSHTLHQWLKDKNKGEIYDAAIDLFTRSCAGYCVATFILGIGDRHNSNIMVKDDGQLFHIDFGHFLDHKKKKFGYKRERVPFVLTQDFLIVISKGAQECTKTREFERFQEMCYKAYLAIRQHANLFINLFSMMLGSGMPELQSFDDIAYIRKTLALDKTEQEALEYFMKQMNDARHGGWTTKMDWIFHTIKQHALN
T2 sequence (P27986 whole entry partner): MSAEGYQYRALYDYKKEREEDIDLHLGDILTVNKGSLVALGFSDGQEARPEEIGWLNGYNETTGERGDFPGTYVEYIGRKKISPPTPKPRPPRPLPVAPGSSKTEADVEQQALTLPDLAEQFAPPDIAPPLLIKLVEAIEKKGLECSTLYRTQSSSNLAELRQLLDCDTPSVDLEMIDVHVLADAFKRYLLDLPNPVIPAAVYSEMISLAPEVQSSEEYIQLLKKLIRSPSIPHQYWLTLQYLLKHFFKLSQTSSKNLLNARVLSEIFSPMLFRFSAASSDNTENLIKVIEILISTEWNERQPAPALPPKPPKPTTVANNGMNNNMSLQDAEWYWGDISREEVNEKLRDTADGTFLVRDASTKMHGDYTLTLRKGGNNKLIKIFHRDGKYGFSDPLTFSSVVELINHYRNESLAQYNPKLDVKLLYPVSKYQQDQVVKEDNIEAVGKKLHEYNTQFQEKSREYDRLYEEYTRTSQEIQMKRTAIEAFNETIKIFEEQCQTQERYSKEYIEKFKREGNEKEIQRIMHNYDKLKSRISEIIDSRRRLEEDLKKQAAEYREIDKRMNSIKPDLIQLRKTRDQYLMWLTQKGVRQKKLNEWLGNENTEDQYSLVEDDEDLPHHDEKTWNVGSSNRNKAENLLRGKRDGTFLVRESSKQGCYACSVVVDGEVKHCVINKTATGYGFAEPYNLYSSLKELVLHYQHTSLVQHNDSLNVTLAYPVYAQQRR
Description: PI3K-alpha kinase (PIK3CA) biochemical activity, H1047R mutant, ADP-Glo. The note with it: PI3K-α (PIK3CA) biochemical, H1047R mutant, Soy PI lipid substrate. The procedure, abridged: as §1

In general, IC50 refers to the midpoint of a concentration-inhibition curve. With `Cc1cc([C@@H](C)Nc2ccc(Cl)nc2C(=O)O)c2oc(-c3ccccc3F)c(C)c(=O)c2c1` [Example 114, 6-Chloro-3-[[(1R)-1-[2-(2-fluorophenyl)-3,6-dimethyl-4-oxo-chromen-8-yl]ethyl]amino]pyridine-2-carboxylic acid 2,2,2-trifluoroacetic acid], the IC50 was 1000 to 5000 nM in assay [1]; under 50 nM in assay [2] (Homo sapiens, MDA-MB-453, 3 h); under 500 nM in assay [3].
In the case of `COc1cccc(-c2cc(=O)c3cc(C)cc([C@@H](C)Nc4ccccc4C(=O)O)c3o2)c1` [Example 60, 2-[[(1R)-1-[2-(3-Methoxyphenyl)-6-methyl-4-oxo-chromen-8-yl]ethyl]amino]benzoic acid 2,2,2-trifluoroacetic acid], the concentration for half-maximal inhibition (IC50) is 500 to 1000 nM in assay [1]; under 50 nM in assay [2] (Homo sapiens, MDA-MB-453, 3 h); under 500 nM in assay [3].
The corresponding values for `Cc1cc([C@@H](C)Nc2ncccc2C(=O)O)c2oc(-c3ccccc3)c(C)c(=O)c2c1` [Example 137, 2-[[(1R)-1-(3,6-Dimethyl-4-oxo-2-phenyl-chromen-8-yl)ethyl]amino]pyridine-3-carboxylic acid] are 1000 to 5000 nM, under 50 nM and under 500 nM.
The corresponding values for `Cc1c(-c2ccc(F)c(F)c2)oc2c([C@@H](C)Nc3ccc(Cl)nc3C(=O)O)cc(C(F)(F)F)cc2c1=O` [Example 96, 6-Chloro-3-[[(1R)-1-[2-(3,4-difluorophenyl)-3-methyl-4-oxo-6-(trifluoromethyl)-chromen-8-yl]ethyl]amino]pyridine-2-carboxylic acid] are 1000 to 5000 nM, under 50 nM and under 500 nM.
In the same order, the values of `Cc1cc([C@@H](C)Nc2ccc(F)c(F)c2C(=O)O)c2oc(-c3ccccc3)c(C)c(=O)c2c1` [Example 38, 6-[[(1R)-1-(3,6-Dimethyl-4-oxo-2-phenyl-chromen-8-yl)ethyl]amino]-2,3-difluoro-benzoic acid] are under 500 nM, under 50 nM and under 500 nM.
As for `Cc1cc([C@@H](C)Nc2ccccc2C(=O)O)c2oc(-c3ccc(F)c(F)c3)cc(=O)c2c1` [Example 63, 2-[[(1R)-1-[2-(3,4-DifIuorophenyl)-6-methyl-4-oxo-chromen-8-yl]ethyl]amino]benzoic acid 2,2,2-trifluoroacetic acid], the IC50 in assay [1] is 1000 to 5000 nM; in assay [2] (Homo sapiens, MDA-MB-453, 3 h), under 50 nM; in assay [3] it was under 500 nM.
The corresponding values for `Cc1cc([C@@H](C)Nc2cccnc2C(=O)O)c2oc(-c3ccccc3)c(C)c(=O)c2c1` [Example 36, 3-[[(1R)-1-(3,6-Dimethyl-4-oxo-2-phenyl-chromen-8-yl)ethyl]amino]-pyridine-2-carboxylic acid] are 5000 to 10000 nM, 50 to 100 nM and 500 to 1000 nM.
`Cc1cc([C@@H](C)Nc2cccnc2C(=O)O)c2oc(-c3cccc(F)c3)c(C)c(=O)c2c1` [Example 136, 3-[[(1R)-1-[2-(3-Fluorophenyl)-3,6-dimethyl-4-oxo-chromen-8-yl]ethyl]amino]pyridine-2-carboxylic acid]: the IC50 in assay [1] was in the range of 5000 to 10000 nM; in assay [2] (Homo sapiens, MDA-MB-453, 3 h), 50 to 100 nM; in assay [3], 500 to 1000 nM.
As to `Cc1cc(C(C)Nc2cccc(F)c2C(=O)O)c2oc(-c3cccc(F)c3)c(C)c(=O)c2c1` (single isomer, unassigned; isomer 2) [Example 106, 2-Fluoro-6-[1-[2-(3-fluorophenyl)-3,6-dimethyl-4-oxo-chromen-8-yl]ethylamino]benzoic acid, Isomer 2], the IC50 was 1000 to 5000 nM in assay [1], over 500 nM in assay [2] and 1000 to 5000 nM in assay [3].
Turning to `Cc1cc([C@@H](C)Nc2ccccc2C(=O)O)c2oc(-c3cccc(-c4cn[nH]c4)c3)c(C)c(=O)c2c1` [Example 167, 2-[[(1R)-1-[3,6-Dimethyl-4-oxo-2-[3-(1H-pyrazol-4-yl)phenyl]chromen-8-yl]ethyl]amino]benzoic acid], the IC50 in assay [1] was 500 to 1000 nM; in assay [2] (Homo sapiens, MDA-MB-453, 3 h), under 50 nM; in assay [3] it was under 500 nM.
In the same order, the values of `Cc1cc([C@@H](C)Nc2cccnc2C(=O)O)c2oc(-c3ccc(F)c(F)c3)c(C)c(=O)c2c1` [Example 120, 3-[[(1R)-1-[2-(3,4-Difluorophenyl)-3,6-dimethyl-4-oxo-chromen-8-yl]ethyl]amino]pyridine-2-carboxylic acid] are over 10000 nM, 50 to 100 nM and 1000 to 5000 nM.
For the compound `Cc1cc([C@@H](C)Nc2ccc(Cl)c(F)c2C(=O)O)c2oc(-c3ccccc3)c(C)c(=O)c2c1` [Example 42, 3-Chloro-6-[[(1R)-1-(3,6-dimethyl-4-oxo-2-phenyl-chromen-8-yl)ethyl]amino]-2-fluoro-benzoic acid], the IC50 was 500 to 1000 nM in assay [1]; under 50 nM in assay [2] (Homo sapiens, MDA-MB-453, 3 h); under 500 nM in assay [3].
The corresponding values for `Cc1cc([C@@H](C)Nc2ccc(C3CC3)nc2C(=O)O)c2oc(-c3ccccc3)c(C)c(=O)c2c1` [Example 40, 6-Cyclopropyl-3-[[(1R)-1-(3,6-dimethyl-4-oxo-2-phenyl-chromen-8-yl)ethyl]amino]-pyridine-2-carboxylic acid] are 5000 to 10000 nM, 50 to 100 nM and under 500 nM.
Regarding `Cc1cc([C@@H](C)Nc2cccc(F)c2C(=O)O)c2oc(-c3ccc(F)cc3F)c(C)c(=O)c2c1` [Example 130, 2-[[(1R)-1-[2-(2,4-Difluorophenyl)-3,6-dimethyl-4-oxo-chromen-8-yl]ethyl]amino]-6-fluoro-benzoic acid 2,2,2-trifluoroacetic acid], the IC50 in assay [1] was 1000 to 5000 nM; in assay [2] (Homo sapiens, MDA-MB-453, 3 h) it was under 50 nM; in assay [3] it was under 500 nM.
The corresponding values for `CNC(=O)c1cccc(-c2oc3c([C@@H](C)Nc4ccccc4C(=O)O)cc(C)cc3c(=O)c2C)c1` [Example 152, 2-[[(1R)-1-[3,6-Dimethyl-2-[3-(methylcarbamoyl)phenyl]-4-oxo-chromen-8-yl]ethyl]amino]benzoic acid] are over 10000 nM, under 50 nM and under 500 nM.
With `COc1ccccc1-c1cc(=O)c2cc(C)cc([C@@H](C)Nc3ccccc3C(=O)O)c2o1` [Example 67, 2-[[(1R)-1-[2-(2-Methoxyphenyl)-6-methyl-4-oxo-chromen-8-yl]ethyl]amino]benzoic acid 2,2,2-trifluoroacetic acid], the IC50 was over 10000 nM in assay [1]; 50 to 100 nM in assay [2] (Homo sapiens, MDA-MB-453, 3 h); under 500 nM in assay [3].
In the same order, the values of `Cc1cc([C@@H](C)Nc2cnccc2C(=O)O)c2oc(-c3ccccc3)c(C)c(=O)c2c1` [Example 138, 3-[[(1R)-1-(3,6-Dimethyl-4-oxo-2-phenyl-chromen-8-yl)ethyl]amino]pyridine-4-carboxylic acid] are over 10000 nM, 100 to 500 nM and under 500 nM.
Turning to `Cc1cc([C@@H](C)Nc2ccc(C)nc2C(=O)O)c2oc(-c3cccc(F)c3)c(C)c(=O)c2c1` [Example 134, 3-[[(1R)-1-[2-(3-Fluorophenyl)-3,6-dimethyl-4-oxo-chromen-8-yl]ethyl]amino]-6-methyl-pyridine-2-carboxylic acid], the IC50 in assay [1] was 5000 to 10000 nM; in assay [2] (Homo sapiens, MDA-MB-453, 3 h) it was under 50 nM; in assay [3], under 500 nM.
